Common to all, as to assay: DTP human tumour cell line panel, 48 h
Assay [1] has as its system NCI/ADR-RES ovarian.
In assay [2] the test system is CAKI-1 renal.
Assay [3] relates to M14 melanoma.
Assay [4] concerns BT-549 breast.
Assay [5] concerns HOP-92 NSCLC.
For assay [6], the system named is NCI-H23 lung.
Assay [7] concerns SN12C renal.
Assay [8] deals with U251 CNS.
For assay [9], the system named is 786-0 renal.
The test system of assay [10] is SR leukemia.
The subject of assay [11] is RXF 393 renal.

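Growth conditions: 96-well plates. Treatment: test compound, 48 hours, 5 concentrations. Analysis: linear interpolation between bracketing concentrations; unreached endpoints set to highest concentration. Definition used: TGI = concentration required for complete inhibition of growth.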 Bounds are passed on as bounds.

Take `CSc1ncnc2c1ncn2C1CC(Oc2ccc(C)cc2)C(COc2ccc(C)cc2)O1` (centres undefined): the TGI in [1], in assay [2], in [3], in assay [4], in assay [5] and in assay [6] was greater than 100 µM each time. Further, the total growth inhibition concentration (TGI) in assay [7], in assay [8], in [9] and in assay [10] was greater than 100 µM in each case.

On to `Oc1ccc(-c2nc(-c3cccnc3)c(-c3ccc(Cl)cc3)[nH]2)cc1`, for which the TGI in [1] came to 36.9 µM; in assay [2], 43.3 µM; in [3], 26.1 µM; in assay [4], 29 µM; in assay [6], 25.9 µM; in assay [7], 32.6 µM. The TGI in assay [8] was 28.5 µM; in [9] it was 28.8 µM; in [11], 26.5 µM; in assay [10], 44.1 µM.

`CCOC(=O)c1cc(C(O)P2(=O)N(CC(C)(C)C)[C@@H]3CCCC[C@H]3N2CC(C)(C)C)cn1C(=O)OC(C)(C)C` (some centres undefined): the TGI is 44.6 µM in assay [1]; 51 µM in [2]; 29.7 µM in [3]; 31.9 µM in assay [4]; 68.3 µM in assay [6]; 27.5 µM in assay [7]. In addition, the TGI was 29.4 µM in assay [8], 31 µM in assay [9], 26.6 µM in assay [11] and 25.6 µM in assay [10].

In the case of `CCOC(=O)CNc1c(OCc2ccccc2)c(=O)c1=O`, the total growth inhibition concentration (TGI) in assay [1], in assay [3], in assay [4], in [6], in [7] and in assay [8] was greater than 100 µM in each case. For the same compound, the TGI in assay [9], in assay [11] and in assay [10] was greater than 100 µM each time.

For `O=C(c1ccc(N=Cc2ccccc2O)cc1)c1ccc(N=Cc2ccccc2O)cc1`, the TGI in assay [1], in assay [2], in [3], in [4], in [5] and in assay [6] was greater than 100 µM each time. In addition, the TGI in [8], in assay [9], in assay [11] and in assay [10] was greater than 100 µM each time.

For the compound `O=C1C=C(C2=CC(=O)C(=O)c3ccccc32)c2ccccc2C1=O`, the TGI in assay [1] is greater than 100 µM; in assay [2], 47.8 µM; in assay [3] it was greater than 100 µM; in assay [4], greater than 100 µM; in [5] it was 39.3 µM; in [6], greater than 100 µM. Besides, the concentration for total growth inhibition (TGI) in assay [7], in assay [8], in assay [9] and in assay [11] was greater than 100 µM throughout.

`CN1CCC(O)(C(C)(C)C)CC1`: the concentration for total growth inhibition (TGI) in [1], in assay [2], in [3], in [4], in assay [6] and in assay [7] was greater than 100 µM throughout. For the same compound, the TGI in assay [8], in [9], in [11] and in [10] was greater than 100 µM throughout.

On to `CON(C)C(=O)CNC(=O)OCC1c2ccccc2-c2ccccc21`, for which the total growth inhibition concentration (TGI) in assay [1], in assay [3], in assay [4], in assay [5], in assay [6] and in assay [7] was greater than 100 µM throughout. In addition, the total growth inhibition concentration (TGI) in assay [8] was greater than 100 µM; in [9], greater than 100 µM; in assay [11] it was greater than 100 µM; in assay [10] it was 69.6 µM.

For `Cc1ccc([N+](=O)[O-])cc1S(=O)(=O)Nc1ccc(C2=NNC(c3ccccc3)C2)cc1` (centres undefined), the total growth inhibition concentration (TGI) is 92.2 µM in assay [1]; 53.6 µM in [2]; 52.3 µM in assay [3]; 52 µM in assay [4]; greater than 100 µM in [5]; 89.8 µM in [6]. The TGI in assay [7] came to 59.2 µM; in assay [9] it was 74.1 µM; in assay [11], 30.4 µM; in assay [10], 48.7 µM.

In the case of `NC(Cc1ccccc1)C(=O)N[C@H]1c2ccsc2/C(=N/O)[C@H]1O` (some centres undefined), the total growth inhibition concentration (TGI) in assay [1], in assay [2], in assay [3], in [4], in assay [5] and in assay [6] was greater than 100 µM in each case. Also, the concentration for total growth inhibition (TGI) in [7], in assay [8], in assay [11] and in assay [10] was greater than 100 µM in each case.

With `O=C(NI1OC(=O)c2ccccc21)c1ccc(Cl)cc1`, the TGI in assay [1], in assay [2], in [3], in assay [4], in assay [5] and in assay [6] was greater than 100 µM each time. In addition, the total growth inhibition concentration (TGI) in [7], in [8], in [9] and in [11] was greater than 100 µM throughout.

Regarding `CCCCN1C(=O)N(c2ccc(OCC)cc2)C2N(CCCC)C1C(C)(C)C2(C)C` (centres undefined), the total growth inhibition concentration (TGI) is 77.6 µM in [1]; 93.8 µM in assay [2]; greater than 100 µM in assay [3]; greater than 100 µM in assay [4]; 85.1 µM in assay [5]; greater than 100 µM in assay [6]. Also, the TGI in assay [7] was greater than 100 µM; in assay [8], greater than 100 µM; in [9], greater than 100 µM; in assay [11], 39.1 µM.

`COCN(CCC1=CCCCC1)C(=O)OC`: the concentration for total growth inhibition (TGI) in [1], in assay [2], in [3], in assay [4], in [5] and in [6] was greater than 100 µM each time. Further, the TGI in assay [8], in assay [9], in [11] and in assay [10] was greater than 100 µM each time.

In the case of `CCOc1cn(C2CC(O)C(CO)O2)c(=O)[nH]c1=O` (centres undefined), the TGI in [1], in [2], in assay [3], in assay [4], in assay [5] and in [6] was greater than 100 µM in each case. The TGI in assay [7], in assay [8], in [9] and in [11] was greater than 100 µM in each case.

On to `COC1=C(OC)C(=O)C(Cc2c(C)nc3sc(C)cn23)=C(C)C1=O`, for which the total growth inhibition concentration (TGI) in [1] was found to be 36.7 µM; in assay [2], 37.4 µM; in assay [3], 32.8 µM; in [4] it was 31.2 µM; in assay [6], 37.2 µM; in [7], 31 µM. Further, the total growth inhibition concentration (TGI) in [8] was 39.7 µM; in [9], 39.4 µM; in [11], 42.4 µM; in assay [10] it was 43.1 µM.

Take `Cc1ccc(SCC(CF)OC(C)n2cnc3c(=O)[nH]c(N)nc32)cc1` (centres undefined): the TGI in [1], in [2], in [3], in assay [4], in [5] and in [6] was greater than 100 µM throughout. The concentration for total growth inhibition (TGI) in assay [7], in assay [8], in assay [9] and in assay [10] was greater than 100 µM throughout.

Regarding `O=C(O)Cc1cccc2c(=O)c3ccccc3oc12`, the TGI in [1], in assay [2], in assay [3], in assay [4], in [5] and in [6] was greater than 100 µM each time. Further, the TGI in [7], in assay [8], in [9] and in assay [10] was greater than 100 µM throughout.

Turning to `COC[C@@H](C[C@H]1O[C@@](O)([C@H](O)[C@@H]2C[C@H](OC)[C@@H](O)CC/C=C(C)/C=C/[C@@H](O[C@@H]3O[C@@H](C)[C@H](OC)[C@@H](O)[C@@H]3O)[C@H](C)/C=C(C)/C=C(C)/C=C(\C)C(=O)O2)[C@H](C)[C@@H](O)[C@H]1C)O[C@H]1C[C@](C)(O)[C@@H](O[C@H]2C[C@@H](OC)[C@H](O)[C@@H](C)O2)C(C)O1` (some centres undefined), the TGI in [1], in assay [2], in assay [3], in assay [4], in assay [5] and in [6] was greater than 100 µM throughout. The concentration for total growth inhibition (TGI) in [7], in assay [8], in [9] and in assay [11] was greater than 100 µM each time.

For the compound `COc1cc(Cn2c3c(c4cc(O)ccc42)Cc2ccccc2C3=O)cc(OC)c1`, the TGI is 66.1 µM in [1]; greater than 100 µM in assay [2]; greater than 100 µM in assay [3]; greater than 100 µM in assay [4]; greater than 100 µM in assay [6]; 57.3 µM in [7]. The TGI in [8] was greater than 100 µM; in assay [9] it was greater than 100 µM; in assay [11], greater than 100 µM; in assay [10] it was 53.3 µM.

For orientation: TGI means the concentration at which net growth stops. Low readings indicate more potent growth arrest, high ones less potent growth arrest.

Source of the values: PubChem BioAssay (NCI).
